Common to all, as to format: in vivo
In assay [1] the test system is Lindemia pyxidaria. Briefly: Test Example 2: herbicidal effect test by application during growth period of paddy rice. The conditions noted are these: 7 days after sowing, 120 g per 10 ares, 14 days after application, read-out: weed inhibition rate. As to the method: (§1) Herbicidal Effect Test by Application During Growth Period of Paddy Rice
(§2) Wagner pots with an area of 1/10,000 […] were filled with paddy soil, followed by addition of water and incorporation of chemical fertilizer (N:P:K=16:16:16), after which puddling was performed. After that, seeds of Echinochloa crus-galli var. formosensis, broad-leaved weeds (Lindemia pyxidaria, and Monochoria vaginalis), and Scirpus juncoides were sown at a depth of 0 cm to 1 cm, 30 seeds each. Immediately after sowing, the pots were flooded and a water depth of approximately 3 cm was maintained. Subsequent management was conducted in a glass greenhouse. Seven days after sowing, an emulsifiable concentrate prepared according to Formulation Example 5 using the compound shown below was diluted with water, and a specified amount of the diluted solution was applied by dropper. The amount of the active ingredient to be applied was equivalent to 120 g per 10 ares. The test was conducted in duplicate for each chemical concentration group, and the herbicidal effect was evaluated 14 days after chemical application using the same criteria as in Test Example 1.

Assay [2] concerns Echinochloa crus-galli var. formosensis. Briefly: Test Example 1: herbicidal effect test by soil application in paddy rice. The conditions noted are these: 120 g per 10 ares, 14 days after application; for inhibition at 1200 g/ha: Echinochloa crus-galli, 336 h, read-out: weed inhibition rate. The method, then: (§3) Herbicidal Effect Test by Soil Application in Paddy Rice
as §2, with “(Lindernia pyxidaria” for “(Lindemia pyxidaria,”, “Immediately thereafter,” for “Seven days after sowing,”, “ares.” for “ares. The test was conducted in duplicate for each chemical concentration group, and the herbicidal effect was evaluated 14 days after chemical application using the same criteria as in Test Example 1.”
(§4) The present test was conducted in duplicate for each chemical concentration group, and the weed inhibition rate (%) was determined 14 days after chemical application using the following formula (Math. 1).

Assay [3] shares this test system. Briefly: Test Example 2: herbicidal effect test by application during growth period of paddy rice. Conditions: 7 days after sowing, 120 g per 10 ares, 14 days after application; for inhibition at 1200 g/ha: Echinochloa crus-galli, read-out: weed inhibition rate. The method, then:
as §1, §2

The subject of assay [4] is Digitaria ciliaris. Kind of assay: Test Example 3: herbicidal effect test by soil application in upland field. The conditions noted are these: 1 day after sowing, 120 g per 10 ares, 14 days after application; for inhibition at 1200 g/ha: Digitaria ciliaris, read-out: weed inhibition rate. As to the method:
(§5) Herbicidal Effect Test by Soil Application in Upland Field
(§6) Pots with an area of 36 cm^2 were filled with upland soil (alluvial loam), twenty seeds each of weeds of Digitaria ciliaris, Echinochloa crus-galli, Chenopodium album, and Amaranthus viridis were uniformly mixed with the top 1 cm layer of soil and the surface was lightly pressed down. One day after sowing, an emulsifiable concentrate prepared according to Formulation Example 5 using the compound shown below was diluted with water, and the diluted solution was sprayed onto the soil surface at a rate of 100 liters per 10 ares. The amount of the active ingredient to be applied was equivalent to 120 g per 10 ares. Fourteen days after chemical application, the herbicidal effect was evaluated according to the same criteria as in Test Example 1.

Assay [5] has as its system Echinochloa crus-galli. The assay is described as above. Conditions: 1 day after sowing, 120 g per 10 ares, 14 days after application; for inhibition at 1200 g/ha: Echinochloa crus-galli, read-out: weed inhibition rate. The method, then: as §5, §6
Assay [6] has as its system Digitaria ciliaris. Kind of assay: Test Example 4: herbicidal effect test by stem and leaf treatment in upland field. Conditions: 7 days after sowing, 120 g per 10 ares, 14 days after application; for inhibition at 1200 g/ha: Digitaria ciliaris, read-out: weed inhibition rate. The method, then:
(§7) Herbicidal Effect Test by Stem and Leaf Treatment in Upland Field
as §6, with “Seven days” for “One day”

The subject of assay [7] is Echinochloa crus-galli. Described as above. Conditions: 7 days after sowing, 120 g per 10 ares, 14 days after application; for inhibition at 1200 g/ha: Echinochloa crus-galli, read-out: weed inhibition rate. The method, then: as §7
as §6, with “Seven days” for “One day”

The subject of assay [8] is Scirpus juncoides. Kind of assay: Test Example 1: herbicidal effect test by soil application in paddy rice. The conditions noted are these: 120 g per 10 ares, 14 days after application. The method, then:
as §3
as §2, with “(Lindernia pyxidaria” for “(Lindemia pyxidaria,”, “Immediately thereafter,” for “Seven days after sowing,”, “ares.” for “ares. The test was conducted in duplicate for each chemical concentration group, and the herbicidal effect was evaluated 14 days after chemical application using the same criteria as in Test Example 1.”
as §4

Assay [9] relates to Scirpus juncoides. Briefly: Test Example 2: herbicidal effect test by application during growth period of paddy rice. The conditions noted are these: 7 days after sowing, 120 g per 10 ares, 14 days after application. The method, then: as §1, §2

In US20260327240A1, “1,4-CINEOLE DERIVATIVE AND INTERMEDIATE THEREOF, HERBICIDE CONTAINING SAID DERIVATIVE AS ACTIVE INGREDIENT, METHOD FOR USING HERBICIDE, AND METHOD FOR PREPARING AGROCHEMICAL COMPOSITION” (HOKKO CHEMICAL INDUSTRY CO., LTD., priority 2023, published 2026) one finds inhibition and weed inhibition rate data, which are given here for 21 compounds.

One may read the inhibition as the relative decrease from the control value, in per cent.

SMILES strings stand for the structures.

Consider `CC(C)=CCO[C@@H]1C[C@]2(C(C)C)O[C@@]1(C)C[C@@H]2Br` [1-672, (1S,2R,4R,5S)-5-bromo-1-methyl-2-(3-methylbut-2-enoxy)-4-isopropyl-7-oxabicyclo[2.2.1]heptane], for which the inhibition at 1200 g/ha in assay [1] was at least 80%.

For the compound `CC(C)[C@]12C=C[C@](C)(O1)[C@H](OCc1ccccc1F)C2` [3-5, (1R,4S,5R)-5-[(2-fluorophenyl)methoxy]-4-methyl-1-isopropyl-7-oxabicyclo[2.2.1]hept-2-ene], the inhibition at 1200 g/ha in assay [1] was at least 80%.

`C=C1C[C@]2(C)O[C@@]1(C(C)C)C[C@H]2OCc1ccccc1C` [2-72, (1R,4S,5R)-1-isopropyl-4-methyl-5-((2-methylbenzyl)oxy)-2-methylene-7-oxabicyclo[2.2.1]heptane]: in assay [1], the inhibition at 1200 g/ha was at least 80%.

With `CC(C)[C@]12C[C@@H](OCc3ccccc3Cl)[C@](C)(CC1=O)O2` [2-11, (1R,4S,5R)-5-((2-chlorobenzyl)oxy)-1-isopropyl-4-methyl-7-oxabicyclo[2.2.1]heptan-2-one], the inhibition at 1200 g/ha in assay [1] was at least 80%.

In the case of `CC(C)[C@]12C[C@@H](OCc3c(F)cccc3F)[C@](C)(CC1=O)O2` [2-20, (1R,4S,5R)-5-((2,6-difluorobenzyl)oxy)-1-isopropyl-4-methyl-7-oxabicyclo[2.2.1]heptan-2-one], in assay [1], the inhibition at 1200 g/ha was at least 80%.

Take `CC(C)[C@]12C[C@@H](OCc3cccc(F)c3)[C@](C)(CC1=O)O2` [2-351, (1R,4S,5R)-5-((3-fluorobenzyl)oxy)-1-isopropyl-4-methyl-7-oxabicyclo[2.2.1]heptan-2-one]: the inhibition at 1200 g/ha in assay [1] is at least 80%.

With `CC(C)[C@]12C[C@@H](OCc3ccccc3F)[C@](C)(C[C@@H]1OCc1ccccc1)O2` [1-1606, (1S,2R,4R,5S)-2-[(2-fluorophenyl)methoxy]-1-methyl-5-phenylmethoxy-4-isopropyl-7-oxabicyclo[2.2.1]heptane], the inhibition at 1200 g/ha in [2], in assay [3], in assay [4], in assay [5], in [6] and in [7] was at least 80% throughout.

For the compound `CC(=O)O[C@H]1C[C@]2(C)O[C@@]1(C(C)C)C[C@H]2OCc1ccccc1F` [1-480, [(1R,2S,4S,5R)-5-[(2-fluorophenyl)methoxy]-4-methyl-1-isopropyl-7-oxabicyclo[2.2.1]heptan-2-yl]acetate], the weed inhibition rate in [2], in assay [8], in assay [3], in assay [9], in assay [4] and in [5] was at least 80% each time. Besides, the weed inhibition rate in [6] and in [7] was at least 80% in each case.

Regarding `Cc1ccccc1CO[C@@H]1C[C@]2(C(C)C)O[C@@]1(C)C[C@@H]2F` [1-2, (1R,2S,4S,5R)-2-fluoro-1-isopropyl-4-methyl-5-((2-methylbenzyl)oxy)-7-oxabicyclo[2.2.1]heptane], the inhibition at 1200 g/ha in [1] is at least 80%.

In the case of `Cc1cccc(CO[C@@H]2C[C@]3(C(C)C)O[C@@]2(C)CC3=O)c1` [2-352, (1R,4S,5R)-1-isopropyl-4-methyl-5-((3-methylbenzyl)oxy)-7-oxabicyclo[2.2.1]heptan-2-one], the inhibition at 1200 g/ha in assay [1] was at least 80%.

`CC(C)[C@]12C[C@@H](OCc3ccccc3C#N)[C@](C)(C[C@@H]1Br)O2` [1-703, 2-[[(1S,2R,4R,5S)-5-bromo-1-methyl-4-isopropyl-7-oxabicyclo[2.2.1]heptan-2-yl]oxymethyl]benzonitrile]: in assay [1], the inhibition at 1200 g/ha was at least 80%.

For the compound `C=CCO[C@@H]1C[C@]2(C)O[C@@]1(C(C)C)C[C@H]2OCc1ccccc1F` [1-930, (1S,2R,4R,5R)-2-[(2-fluorophenyl)methoxy]-1-methyl-4-isopropyl-5-prop-2-enoxy-7-oxabicyclo[2.2.1]heptane], the inhibition at 1200 g/ha in assay [1] was at least 80%.

Regarding `Cc1cccc(C)c1CO[C@@H]1C[C@]2(C(C)C)O[C@@]1(C)CC2=O` [2-5, (1R,4S,5R)-5-((2,6-dimethylbenzyl)oxy)-1-isopropyl-4-methyl-7-oxabicyclo[2.2.1]heptan-2-one], the inhibition at 1200 g/ha in assay [1] is at least 80%.

As to `CC(C)[C@]12C[C@@H](OCc3ccc(F)cc3)[C@](C)(CC1=O)O2` [2-349, (1R,4S,5R)-5-((4-fluorobenzyl)oxy)-1-isopropyl-4-methyl-7-oxabicyclo[2.2.1]heptan-2-one], the inhibition at 1200 g/ha in assay [1] is at least 80%.

Take `COC1(OC)C[C@]2(C)O[C@@]1(C(C)C)C[C@H]2OCc1ccccc1F` [1-935, (1R,4S,5R)-5-((2-fluorobenzyl)oxy)-1-isopropyl-2,2-dimethoxy-4-methyl-7-oxabicyclo[2.2.1]heptane]: the inhibition at 1200 g/ha in assay [1] is at least 80%.

`CC(C)[C@]12C[C@@H](OCc3cccc(C(F)(F)F)c3)[C@](C)(C[C@@H]1Br)O2` [1-701, (1S,2R,4R,5S)-5-bromo-1-methyl-4-isopropyl-2-[[3-(trifluoromethyl)phenyl]methoxy]-7-oxabicyclo[2.2.1]heptane]: the inhibition at 1200 g/ha in assay [2], in [3], in assay [4], in [5], in assay [6] and in [7] was at least 80% each time.

Regarding `CC(C)[C@]12C[C@@H](OCc3ccccc3F)[C@](C)(C[C@@H]1Br)O2` [1-19, (1S,2R,4R,5S)-5-bromo-2-[(2-fluorophenyl)methoxy]-1-methyl-4-isopropyl-7-oxabicyclo[2.2.1]heptane], the inhibition at 1200 g/ha in assay [1] is at least 80%.

As to `Cc1ccccc1CO[C@@H]1C[C@]2(C(C)C)O[C@@]1(C)CC2=O` [2-3, (1R,4S,5R)-1-isopropyl-4-methyl-5-((2-methylbenzyl)oxy)-7-oxabicyclo[2.2.1]heptan-2-one], the inhibition at 1200 g/ha in assay [1] is at least 80%.

`C=C1C[C@]2(C)O[C@@]1(C(C)C)C[C@H]2OCc1ccccc1F` [2-88, (1R,4S,5R)-5-((2-fluorobenzyl)oxy)-1-isopropyl-4-methyl-2-methylene-7-oxabicyclo[2.2.1]heptane]: the inhibition at 1200 g/ha in assay [1] is at least 80%.

As for `CC(C)[C@]12C[C@@H](OCc3ccccc3F)[C@](C)(C[C@H]1OCC1CC1)O2` [1-921, (1S,2R,4R,5R)-5-(cyclopropylmethoxy)-2-[(2-fluorophenyl)methoxy]-1-methyl-4-isopropyl-7-oxabicyclo[2.2.1]heptane], the inhibition at 1200 g/ha in [1] is at least 80%.

As to `C#CCO[C@@H]1C[C@]2(C)O[C@@]1(C(C)C)C[C@H]2OCc1ccccc1F` [1-931, (1S,2R,4R,5R)-2-[(2-fluorophenyl)methoxy]-1-methyl-4-isopropyl-5-prop-2-ynoxy-7-oxabicyclo[2.2.1]heptane], the inhibition at 1200 g/ha in assay [1] was at least 80%.
